Reference: US7456152B2, “Peptide inhibitors of thrombin as potent anticoagulants” (priority 2004, dated 2008)
Values joined by “and” are separate entries in the source; they are usually repeats but may differ in a detail not shown here. Equal entries are not always repeated. Ends that are not written are not given here.

What was measured:
human α-thrombin [1] = molecular target: T1, human α-thrombin (Homo sapiens, UniProt P00734); experiment: Clotting assay: fibrinogen clotting by human thrombin, concentration doubling the clotting time (DCT) = IC50; assay type: biochemical
T1 construct: Bovine and human α-thrombins were supplied by Haematologic Technologies Inc (VT, USA); cleaved off efficiently by thrombin to generate the free N-terminus of the A-chain of human thrombin; purchased Haematologic Technologies Inc (VT, USA)
Protocol: The clotting assays were carried out by use of the protocols described previously (DiMaio, J., Gibbs, B., Munn, D., Lefebvre, J., Ni, F., and Konishi, Y. (1990) J. Biol. Chem. 265, 21698-21703; and Witting, J. I., Bourdon, P., Brezniak, D. V., Maraganore, J. M., and Fenton, J. W. (1992) Biochem. J. 283 (Pt 3), 737-743) The assay employs bovine plasma fibrinogen dissolved at 0.1% in 50 mM Tris-Cl, 100 mM NaCl, 0.1% PEG-8000 at pH 7.6 (i.e. the clotting buffer). Each assay mixture contained a certain concentration of the peptide, and the reaction was started by the addition of human thrombin to a final concentration of 0.1 NIH unit/ml. Optical absorbance of the assay mixtures was measured at 420 nm and 37° C. using the Spectramax™ plate reader. The onset clotting time was determined as an intersection of the baseline and the initial slope of the O.D. change as a result of fibrin clot formation. The concentration of a peptide needed to double the clotting time (DCT) was defined as IC50. Peptide concentrations were determined by comparing the O.D.280 values of peptide stock solutions in the clotting buffer (vide supra) with the predicted extinction coefficient for each peptide (Gill, S. C. and von Hippel, P. H. (1989) Anal. Biochem. 182, 319-326).
The peptide concentration for doubling the clotting time (DCT) was defined as the IC50 value.

human α-thrombin [2] = molecular target: T1, human α-thrombin; experiment: Inhibition of the amidolytic activity of thrombin (Tos-Gly-Pro-Arg-p-nitroanilide hydrolysis); assay type: biochemical; details: Amidolytic assay, 25° C. (Ki, nM), Tos-Gly-Pro-Arg-pNA, 25° C.
Protocol: Kinetics of thrombin-catalyzed hydrolysis of the chromogenic substrate Tos-Gly-Pro-Arg-p-nitroanilide were followed by absorbance at 405 nm on a Spectramax plate reader thermostated at either 25° C. or 37° C. according to the method of Maragnore et al (supra). The concentrations of Tos-Gly-Pro-Arg-p-nitroanilide ranged from 2 to 400 μM. Initial rates were calculated under conditions of <15% hydrolysis of the total substrate. The KM and Vmax values were calculated accordingly and kcat values were determined by dividing Vmax by the enzyme (thrombin) concentration. The inhibition assays were performed in the clotting buffer with a certain fixed concentration of α-thrombin (˜0.3 nM) such that linear progress curves were achieved within at least 15 min in the absence of the inhibition. The total volume of the solution was fixed at 200 μl. Reactions were initiated by addition of the chromogenic substrate to the wells containing thrombin and a certain concentration of the peptide inhibitors premixed for less than 2 min. Alternatively, the substrate was first mixed with the peptide inhibitor and the total volume was adjusted to 120 μL using the clotting buffer. Eighty microliters of human α-thrombin in the clotting buffer (˜0.3 nM final concentration) was added to initiate the reaction. The concentration of the peptides ranged from 0.5 nM to 10 μM. Kinetics data from initial rate experiments were used to construct Lineweaver-Burke plot; i.e. the relationship of (substrate concentration)^−1 versus (initial velocity)^−1 which. were analysed by linear regression with MicroCal Origin 4.1 program (MicroCal, MD) or using the GraphPad Prism software. The Ki values of the inhibitors were determined using the equation: Ki=[I]/{(SL0/SL1)−1}, where
[I] is the inhibitor concentration,
SL0 is the slope of the reaction in the absence of inhibitors, and
SL1 is the slope of the reaction in the presence of the inhibitor.
Alternatively, Dixon plots of inverse velocity versus the inhibitor concentrations were generated with the Sigmaplot™ software. Every Dixon plot contained an array of data corresponding to different substrate concentrations and the Ki values were determined from the intersections. Following Peptide Cleavage by HPLC

Compound	IC50 (human α-thrombin [1])	Ki (human α-thrombin [2])
CC[C@H](C)[C@H](NC(=O)[C@H](CCC(=O)O)NC(=O)[C@H](CCC(=O)O)NC(=O)[C@H](Cc1ccccc1)NC(=O)[C@H](CC(=O)O)NC(=O)CNC(=O)[C@H](CC(=O)O)NC(=O)[C@H](CC(N)=O)NC(=O)[C@H](Cc1c[nH]cn1)NC(=O)[C@H](CC(=O)O)NC(=O)[C@H](CCC(N)=O)NC(=O)[C@@H]1CCCN1C(=O)[C@H](CCCNC(=N)N)NC(=O)[C@@H]1CCCN1C(=O)[C@H](CC(=O)O)NC(=O)[C@@H](N)Cc1ccccc1)C(=O)N1CCC[C@H]1C(=O)N[C@@H](CCC(=O)O)C(=O)N[C@@H](CCC(=O)O)C(=O)N[C@@H](Cc1ccc(O)cc1)C(=O)N[C@@H](CC(C)C)C(=O)N[C@@H](CCC(N)=O)C(=O)O [FD22-D]	53 ± 2 nM	
CC[C@H](C)[C@H](NC(=O)[C@H](CCC(=O)O)NC(=O)[C@H](CCC(=O)O)NC(=O)[C@H](Cc1ccccc1)NC(=O)[C@H](CC(=O)O)NC(=O)CNC(=O)[C@H](CC(=O)O)NC(=O)[C@H](CC(N)=O)NC(=O)[C@H](Cc1c[nH]cn1)NC(=O)[C@H](CCCNC(=N)N)NC(=O)[C@H](CCC(N)=O)NC(=O)[C@@H]1CCCN1C(=O)[C@H](CCCNC(=N)N)NC(=O)[C@@H]1CCCN1C(=O)[C@H](CC(=O)O)NC(=O)[C@@H](N)Cc1ccccc1)C(=O)N1CCC[C@H]1C(=O)N[C@@H](CCC(=O)O)C(=O)N[C@@H](CCC(=O)O)C(=O)N[C@@H](Cc1ccc(O)cc1)C(=O)N[C@@H](CC(C)C)C(=O)N[C@@H](CCC(N)=O)C(=O)O [FD22-R]	~32 nM and 32 nM	45 ± 6 nM
CC[C@H](C)[C@H](NC(=O)[C@H](CCC(=O)O)NC(=O)[C@H](CCC(=O)O)NC(=O)[C@H](Cc1ccccc1)NC(=O)[C@H](CC(=O)O)NC(=O)CNC(=O)[C@H](CC(=O)O)NC(=O)[C@H](CC(N)=O)NC(=O)[C@H](Cc1c[nH]cn1)NC(=O)[C@H](CO)NC(=O)[C@H](CCC(N)=O)NC(=O)[C@@H]1CCCN1C(=O)[C@H](CCCNC(=N)N)NC(=O)[C@@H]1CCCN1C(=O)[C@H](CC(=O)O)NC(=O)[C@@H](N)Cc1ccccc1)C(=O)N1CCC[C@H]1C(=O)N[C@@H](CCC(=O)O)C(=O)N[C@@H](CCC(=O)O)C(=O)N[C@@H](Cc1ccc(O)cc1)C(=O)N[C@@H](CC(C)C)C(=O)N[C@@H](CCC(N)=O)C(=O)O [FD22^(a)]	50 ± 15 nM	55 ± 10 nM
CC[C@H](C)[C@H](NC(=O)[C@H](CCC(=O)O)NC(=O)[C@H](CCC(=O)O)NC(=O)[C@H](Cc1ccccc1)NC(=O)[C@H](CC(=O)O)NC(=O)CNC(=O)[C@H](CC(=O)O)NC(=O)[C@H](CC(N)=O)NC(=O)[C@H](Cc1c[nH]cn1)NC(=O)[C@H](CC(=O)O)NC(=O)[C@H](CCC(N)=O)NC(=O)[C@@H]1CCCN1C(=O)[C@H](CCCNC(=N)N)NC(=O)[C@@H]1CCCN1C(=O)[C@H](CCC(=O)O)NC(=O)[C@@H](N)Cc1ccccc1)C(=O)N1CCC[C@H]1C(=O)N[C@@H](CCC(=O)O)C(=O)N[C@@H](CCC(=O)O)C(=O)N[C@@H](Cc1ccc(O)cc1)C(=O)N[C@@H](CC(C)C)C(=O)N[C@@H](CCC(N)=O)C(=O)O [FE22-D]	> 125 nM	
CC[C@H](C)[C@H](NC(=O)[C@H](CCC(=O)O)NC(=O)[C@H](CCC(=O)O)NC(=O)[C@H](Cc1ccccc1)NC(=O)[C@H](CC(=O)O)NC(=O)CNC(=O)[C@H](CC(=O)O)NC(=O)[C@H](CC(N)=O)NC(=O)[C@H](Cc1c[nH]cn1)NC(=O)[C@H](CO)NC(=O)[C@H](CCC(N)=O)NC(=O)[C@@H]1CCCN1C(=O)[C@H](CCCNC(=N)N)NC(=O)[C@@H]1CCCN1C(=O)[C@H](CCC(=O)O)NC(=O)[C@@H](N)Cc1ccccc1)C(=O)N1CCC[C@H]1C(=O)N[C@@H](CCC(=O)O)C(=O)N[C@@H](CCC(=O)O)C(=O)N[C@@H](Cc1ccc(O)cc1)C(=O)N[C@@H](CC(C)C)C(=O)N[C@@H](CCC(N)=O)C(=O)O [FE22]	80 nM	
CC[C@H](C)[C@H](NC(=O)[C@H](CCC(=O)O)NC(=O)[C@H](CCC(=O)O)NC(=O)[C@H](Cc1ccccc1)NC(=O)[C@H](CC(=O)O)NC(=O)CNC(=O)[C@H](CC(=O)O)NC(=O)[C@H](CC(N)=O)NC(=O)[C@H](Cc1c[nH]cn1)NC(=O)[C@H](CO)NC(=O)[C@H](CCC(N)=O)NC(=O)[C@@H]1CCCN1C(=O)[C@H](CCCNC(=N)N)NC(=O)[C@@H]1CCCN1C(=O)[C@H](Cc1c[nH]cn1)NC(=O)[C@@H](N)Cc1ccccc1)C(=O)N1CCC[C@H]1C(=O)N[C@@H](CCC(=O)O)C(=O)N[C@@H](CCC(=O)O)C(=O)N[C@@H](Cc1ccc(O)cc1)C(=O)N[C@@H](CC(C)C)C(=O)N[C@@H](CCC(N)=O)C(=O)O [FH22]	> 150 nM	
CC[C@H](C)[C@H](NC(=O)[C@H](CCC(N)=O)NC(=O)[C@@H]1CCCN1C(=O)[C@H](CCCNC(=N)N)NC(=O)[C@@H]1CCCN1C(=O)[C@H](CC(N)=O)NC(=O)[C@@H](N)Cc1ccccc1)C(=O)N[C@@H](Cc1c[nH]cn1)C(=O)N[C@@H](CC(N)=O)C(=O)N[C@@H](CC(=O)O)C(=O)NCC(=O)N[C@@H](CC(=O)O)C(=O)N[C@@H](Cc1ccccc1)C(=O)N[C@@H](CCC(=O)O)C(=O)N[C@@H](CCC(=O)O)C(=O)N[C@H](C(=O)N1CCC[C@H]1C(=O)N[C@@H](CCC(=O)O)C(=O)N[C@@H](CCC(=O)O)C(=O)N[C@@H](Cc1ccc(O)cc1)C(=O)N[C@@H](CC(C)C)C(=O)N[C@@H](CCC(N)=O)C(=O)O)[C@@H](C)CC [FN22-I]	45 nM	360 nM
CC[C@H](C)[C@H](NC(=O)[C@H](CCC(=O)O)NC(=O)[C@H](CCC(=O)O)NC(=O)[C@H](Cc1ccccc1)NC(=O)[C@H](CC(=O)O)NC(=O)CNC(=O)[C@H](CC(=O)O)NC(=O)[C@H](CC(N)=O)NC(=O)[C@H](Cc1c[nH]cn1)NC(=O)[C@H](CCSC)NC(=O)[C@H](CCC(N)=O)NC(=O)[C@@H]1CCCN1C(=O)[C@H](CCCNC(=N)N)NC(=O)[C@@H]1CCCN1C(=O)[C@H](CCC(N)=O)NC(=O)[C@@H](N)Cc1ccccc1)C(=O)N1CCC[C@H]1C(=O)N[C@@H](CCC(=O)O)C(=O)N[C@@H](CCC(=O)O)C(=O)N[C@@H](Cc1ccc(O)cc1)C(=O)N[C@@H](CC(C)C)C(=O)N[C@@H](CCC(N)=O)C(=O)O [FQ22-M]	≥ 10 nM	
CC[C@H](C)[C@H](N)C(=O)N[C@@H](CCC(N)=O)C(=O)N1CCC[C@H]1C(=O)N[C@@H](CCCNC(=N)N)C(=O)N1CCC[C@H]1C(=O)N[C@@H](CCC(N)=O)C(=O)N[C@H](C(=O)N[C@@H](Cc1c[nH]cn1)C(=O)N[C@@H](CC(N)=O)C(=O)N[C@@H](CC(=O)O)C(=O)NCC(=O)N[C@@H](CC(=O)O)C(=O)N[C@@H](Cc1ccccc1)C(=O)N[C@@H](CCC(=O)O)C(=O)N[C@@H](CCC(=O)O)C(=O)N[C@H](C(=O)N1CCC[C@H]1C(=O)N[C@@H](CCC(=O)O)C(=O)N[C@@H](CCC(=O)O)C(=O)N[C@@H](Cc1ccc(O)cc1)C(=O)N[C@@H](CC(C)C)C(=O)N[C@@H](CCC(N)=O)C(=O)O)[C@@H](C)CC)[C@@H](C)CC [IQ22-I]	39 ± 3 nM	
WDPRPQRHNDGDFEPIPEEYLQ [WD22-R-P^(d)]	8.1 ± 1.1 nM	
WDPRPQRHNDGDYEPIPEEYLQ [WD22-R-YP^(d)]	4.8 ± 0.8 nM	
WDPRPQSRNDGDFEPIPEEYLQ [WD22-SR-P]	53 ± 2 nM	
WDPRPQSRNDGDYEPIPEEYLQ [WD22-SR-YP]	32 ± 3 nM	
